Assays:
[1] = molecular target: T1, EZH2 within the PRC2 complex (Homo sapiens (Human), UniProt Q15910); test: EZH2 methyltransferase SPA, biotinylated histone H3K27 peptide substrate (Assay Protocol 2); type: biochemical; details: 3H-SAM
Procedure: Compounds contained herein were evaluated for their ability to inhibit the methyltransferase activity of EZH2 within the PRC2 complex. Human PRC2 complex was prepared by co-expressing each of the 5 member proteins (FLAG-EZH2, EED, SUZ12, RbAp48, AEBP2) in Sf9 cells followed by co-purification. Enzyme activity was measured in a scintillation proximity assay (SPA) where a tritiated methyl group is transferred from 3H-SAM to a lysine residue on a biotinylated, unmethylated peptide substrate derived from histone H3. The peptides were captured on streptavidin-coated SPA beads and the resulting signal was read on a ViewLux plate reader.
(§1) Part A. Compound Preparation
• 4. Prepare 10 mM stock of compounds from solid in 100% DMSO. • 5. Set up an 11-point serial dilution (1:4 dilution, top concentration 10 mM) in 100% DMSO for each test compound in a 384 well plate leaving columns 6 and 18 for DMSO controls. • 6. Dispense 10 nL of compound from the dilution plate into reaction plates (Corning, 384-well polystyrene NBS, Cat#3673). Part B. Reagent Preparation Prepare the following solutions: • 7. 1× Base Buffer, 50 mM Tris-HCl, pH 8, 2 mM MgCl2: Per 1 L of base buffer, combine 1 M Tris-HCl, pH 8 (50 mL), 1 M MgCl2 (2 mL), and distilled water (948 mL). • 8. 1× Assay Buffer: Per 10 mL of 1× Assay Buffer, combine 1× Base Buffer (9.96 mL), 1 M DTT (40 uL), and 10% Tween-20 (1 uL) to provide a final concentration of 50 mM Tris-HCl, pH 8, 2 mM MgCl2, 4 mM DTT, 0.001% Tween-20. • 9. 2× Enzyme Solution: Per 10 mL of 2× Enzyme Solution, combine 1× Assay Buffer (9.99 mL) and 3.24 uM EZH2 5 member complex (6.17 uL) to provide a final enzyme concentration of 1 nM.
10. […] Read plates • 2. Read the assay plates on the Viewlux Plate Reader utilizing the 613 nm emission filter or clear filter (300 s exposure). […]
(§2) Percent inhibition was calculated relative to the DMSO control for each compound concentration and the resulting values were fit using standard IC50 fitting parameters within the ABASE data fitting software package.

[2] = molecular target: T1, EZH2 within the PRC2 complex; test: EZH2 methyltransferase SPA, mononucleosome substrate (Assay Protocol 1); type: biochemical; details: mononucleosomes from HeLa cells, 3H-SAM
Procedure: Compounds contained herein were evaluated for their ability to inhibit the methyltransferase activity of EZH2 within the PRC2 complex. Human PRC2 complex was prepared by co-expressing each of the 5 member proteins (FLAG-EZH2, EED, SUZ12, RbAp48, AEBP2) in Sf9 cells followed by co-purification. Enzyme activity was measured in a scintillation proximity assay (SPA) where a tritiated methyl group is transferred from 3H-SAM to a lysine residue on Histone H3 of a mononucleosome, purified from HeLa cells. Mononucleosomes were captured on SPA beads and the resulting signal is read on a ViewLux plate reader.
as §1
• 1. Prepare 10 mM stock of compounds from solid in 100% DMSO. • 2. Set up an 11-point serial dilution (1:3 dilution, top concentration 10 mM) in 100% DMSO for each test compound in a 384 well plate leaving columns 6 and 18 for DMSO controls. • 3. Dispense 100 nL of compound from the dilution plate into reaction plates (Grenier Bio-One, 384-well, Cat#784075). Part B. Reagent Preparation Prepare the following solutions: • 1. 50 mM Tris-HCl, pH 8: Per 1 L of base buffer, combine 1 M Tris-HCl, pH 8 (50 mL) and distilled water (950 mL). • 2. 1× Assay Buffer: Per 10 mL of 1× Assay Buffer, combine 50 mM Tris-HCl, pH 8 (9958 uL), 1 M MgCl2 (20 uL), 2 M DTT (20 uL), and 10% Tween-20 (2 uL) to provide a final concentration of 50 mM Tris-HCl, pH 8, 2 mM MgCl2, 4 mM DTT, 0.002% Tween-20. • 3. 2× Enzyme Solution: Per 10 mL of 2× Enzyme Solution, combine 1× Assay Buffer and PRC2 complex to provide a final enzyme concentration of 10 nM. • 4. SPA Bead Suspension: Per 1 mL of SPA Bead Suspension, combine PS-PEI coated LEADSeeker beads (40 mg) and H2O (1 mL) to provide a final concentration of 40 mg/mL. • 5. […] Read plates • 1. Read the assay plates on the Viewlux Plate Reader utilizing the 613 nm emission filter with a 300 s read time. […]
as §2

T1 sequence (Q15910 whole entry): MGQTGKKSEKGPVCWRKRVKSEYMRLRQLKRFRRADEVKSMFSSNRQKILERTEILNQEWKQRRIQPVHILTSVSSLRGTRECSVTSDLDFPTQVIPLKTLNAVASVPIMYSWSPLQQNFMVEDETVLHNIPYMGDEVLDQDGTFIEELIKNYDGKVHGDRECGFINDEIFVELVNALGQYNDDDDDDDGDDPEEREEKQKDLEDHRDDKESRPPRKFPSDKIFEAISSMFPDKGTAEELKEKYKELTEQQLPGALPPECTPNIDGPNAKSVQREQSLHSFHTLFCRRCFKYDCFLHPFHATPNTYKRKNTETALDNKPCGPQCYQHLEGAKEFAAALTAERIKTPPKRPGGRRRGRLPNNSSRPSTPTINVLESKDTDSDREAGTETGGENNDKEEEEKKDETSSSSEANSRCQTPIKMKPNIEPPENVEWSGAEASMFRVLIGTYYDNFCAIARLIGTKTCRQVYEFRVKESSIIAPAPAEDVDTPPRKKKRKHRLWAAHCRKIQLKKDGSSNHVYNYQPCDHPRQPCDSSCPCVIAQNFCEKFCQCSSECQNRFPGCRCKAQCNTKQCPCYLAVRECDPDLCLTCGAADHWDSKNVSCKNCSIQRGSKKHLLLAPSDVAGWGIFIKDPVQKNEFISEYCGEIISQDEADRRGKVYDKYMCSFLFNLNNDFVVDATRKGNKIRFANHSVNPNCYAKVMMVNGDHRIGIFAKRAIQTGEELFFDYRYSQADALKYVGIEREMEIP
T1 sequence (O75530 whole entry partner): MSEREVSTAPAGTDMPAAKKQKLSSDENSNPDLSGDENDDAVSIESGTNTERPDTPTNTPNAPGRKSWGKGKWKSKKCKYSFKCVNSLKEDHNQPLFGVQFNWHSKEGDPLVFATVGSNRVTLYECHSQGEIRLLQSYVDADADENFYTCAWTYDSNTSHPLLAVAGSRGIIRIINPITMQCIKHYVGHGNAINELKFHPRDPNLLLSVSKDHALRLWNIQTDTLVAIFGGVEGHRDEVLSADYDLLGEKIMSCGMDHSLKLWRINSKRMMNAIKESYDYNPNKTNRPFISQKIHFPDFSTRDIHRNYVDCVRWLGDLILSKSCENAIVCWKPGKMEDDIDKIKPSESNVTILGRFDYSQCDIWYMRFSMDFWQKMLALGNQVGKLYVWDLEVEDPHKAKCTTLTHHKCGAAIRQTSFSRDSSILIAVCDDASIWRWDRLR
T1 sequence (Q15022 whole entry partner): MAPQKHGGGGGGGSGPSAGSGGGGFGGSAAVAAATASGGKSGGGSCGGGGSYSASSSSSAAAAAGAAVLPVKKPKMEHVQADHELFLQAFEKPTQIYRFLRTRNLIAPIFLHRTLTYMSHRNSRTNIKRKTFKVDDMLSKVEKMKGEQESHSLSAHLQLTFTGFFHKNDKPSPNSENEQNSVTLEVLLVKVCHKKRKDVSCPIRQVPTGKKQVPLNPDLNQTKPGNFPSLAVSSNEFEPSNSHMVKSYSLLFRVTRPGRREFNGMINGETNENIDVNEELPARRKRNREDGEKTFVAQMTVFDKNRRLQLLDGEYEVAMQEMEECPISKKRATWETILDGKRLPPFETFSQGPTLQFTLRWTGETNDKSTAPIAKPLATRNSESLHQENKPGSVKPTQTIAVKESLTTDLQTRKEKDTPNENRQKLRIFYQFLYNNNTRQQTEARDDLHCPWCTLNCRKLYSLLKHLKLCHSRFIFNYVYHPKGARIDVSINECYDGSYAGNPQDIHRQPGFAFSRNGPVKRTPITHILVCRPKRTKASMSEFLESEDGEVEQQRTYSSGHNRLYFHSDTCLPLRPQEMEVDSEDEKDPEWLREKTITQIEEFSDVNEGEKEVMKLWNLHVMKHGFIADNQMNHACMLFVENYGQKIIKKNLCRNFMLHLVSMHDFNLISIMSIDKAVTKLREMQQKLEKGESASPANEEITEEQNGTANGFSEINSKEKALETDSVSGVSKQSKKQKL
T1 sequence (Q09028 whole entry partner): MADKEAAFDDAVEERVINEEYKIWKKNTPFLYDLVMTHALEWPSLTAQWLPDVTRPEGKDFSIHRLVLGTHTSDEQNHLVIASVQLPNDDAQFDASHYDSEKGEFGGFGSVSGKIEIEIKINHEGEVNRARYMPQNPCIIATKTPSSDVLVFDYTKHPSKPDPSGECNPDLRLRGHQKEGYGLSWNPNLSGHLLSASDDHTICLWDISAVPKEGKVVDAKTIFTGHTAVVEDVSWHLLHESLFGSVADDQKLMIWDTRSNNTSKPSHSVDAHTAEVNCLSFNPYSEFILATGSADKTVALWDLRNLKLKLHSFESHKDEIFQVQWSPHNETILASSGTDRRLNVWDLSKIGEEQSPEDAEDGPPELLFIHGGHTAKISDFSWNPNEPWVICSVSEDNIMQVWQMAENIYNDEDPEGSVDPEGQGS
T1 sequence (Q6ZN18 whole entry partner): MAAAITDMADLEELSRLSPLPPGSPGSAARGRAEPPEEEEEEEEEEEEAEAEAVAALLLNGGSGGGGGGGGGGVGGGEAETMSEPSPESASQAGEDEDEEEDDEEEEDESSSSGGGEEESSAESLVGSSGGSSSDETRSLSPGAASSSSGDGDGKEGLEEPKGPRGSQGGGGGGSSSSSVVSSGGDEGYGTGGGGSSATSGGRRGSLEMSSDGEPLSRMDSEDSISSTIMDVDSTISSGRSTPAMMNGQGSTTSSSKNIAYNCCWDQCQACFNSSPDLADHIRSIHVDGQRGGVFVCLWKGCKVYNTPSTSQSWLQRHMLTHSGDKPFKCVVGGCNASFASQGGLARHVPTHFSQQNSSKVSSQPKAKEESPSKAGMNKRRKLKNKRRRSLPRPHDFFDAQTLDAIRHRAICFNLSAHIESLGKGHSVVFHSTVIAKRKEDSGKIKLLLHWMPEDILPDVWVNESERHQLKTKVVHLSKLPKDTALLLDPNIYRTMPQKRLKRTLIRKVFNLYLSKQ

IC50 [1] [nM]	IC50 [2] [nM]	SMILES
160	–	CCN(c1sc(Br)c(C(=O)NCc2c(C)[nH]c(C)cc2=O)c1C)[C@H]1CC[C@H](N(C)C)CC1 [Example 4, 2-Bromo-N-((2,6-dimethyl-4-oxo-1,4-dihydropyridin-3-yl)methyl)-5-(((trans)-4-(dimethylamino)cyclohexyl)(ethyl)amino)-4-methylthiophene-3-carboxamide]
–	316	CCN(c1scc(C(=O)NCc2c(C)[nH]c(C)cc2=O)c1C)C1CCOCC1 [Example 1, N-((2,6-dimethyl-4-oxo-1,4-dihydropyridin-3-yl)methyl)-5-(ethyl(tetrahydro-2H-pyran-4-yl)amino)-4-methylthiophene-3-carboxamide]
100	32	CCN(c1scc(C(=O)NCc2c(C)[nH]c(C)cc2=O)c1C)[C@H]1CC[C@H](N(C)C)CC1 [Example 2, N-((2,6-dimethyl-4-oxo-1,4-dihydropyridin-3-yl)methyl)-5-(((trans)-4-(dimethylamino)cyclohexyl)(ethyl)amino)-4-methylthiophene-3-carboxamide]
16	32	CCN(c1scc(C(=O)NCc2c(C)[nH]c(C)c(N)c2=O)c1C)[C@H]1CC[C@H](N(C)C)CC1 [Example 3, N-((5-amino-2,6-dimethyl-4-oxo-1,4-dihydropyridin-3-yl)methyl)-5-(((trans)-4-(dimethylamino)cyclohexyl)(ethyl)amino)-4-methylthiophene-3-carboxamide]
